According to patent US4118561A, “7-(Substituted)-7H-pyrrolo[3,2-f]quinazoline-1,3-diamines” (priority 1977, dated 1978):
Converted amounts (≈) assume the structure as drawn.

Columns and labels:
S. paratyphi 11737 = experiment: In vitro antibacterial activity (MIC), S. paratyphi 11737; format: cell-based; conditions: Salmonella enterica, 18 h
[1] = Antimalarial blood schizonticidal test in mice; format: in vivo, Plasmodium berghei (infected ICR/HA Swiss mice); parameters: ΔMST (increase in mean survival time): unit: days; conditions: mouse, in vivo, sc, single dose; this is the highest dose tested; read-out: Highest Non-Lethal Dose
How it was run: (§1)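 Single s.c. doses (peanut oil vehicle, graded levels) given 72 h after i.p. inoculation of young Swiss mice with P. berghei KBG 173 blood (4 × 10^7 parasitized cells). Activity judged by cures (alive at 60 days) or significant mean survival gain over untreated controls, without drug-related deaths.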

[2] = tested on: Plasmodium berghei KBG 173; experiment: Antimalarial blood schizonticidal test in mice; format: in vivo, Plasmodium berghei (infected ICR/HA Swiss mice); parameters: ΔMST (increase in mean survival time): unit: days; conditions: s.c.
How it was run: as §1

P. cynomolgi = experiment: Activity against P. cynomolgi infections in Rhesus monkeys; format: in vivo, P. cynomolgi (infected Rhesus monkeys); conditions: Plasmodium cynomolgi, in Macaca mulatta, 168 h; Rhesus monkeys, oral, seven days; read-out: CD50 (the source's name)
[3] = tested on: strains of P. berghei resistant to chloroquine, sulfones, cycloguanil, and pyrimethamine; experiment: Activity against resistant strains of P. berghei in mice; format: in vivo, P. berghei (infected mice)
Source text: Activity against strains of P. berghei resistant to chloroquine, sulfones, cycloguanil, and pyrimethamine, is shown by the testing of 7-(phenylmethyl)-7H-pyrrolo[3,2-f]quinazoline-1,3-diamine and 7-[(2,5-dimethylphenyl)methyl]-7H-pyrrolo[3,2-f]quinazoline-1,3-diamine in mice against such resistant strains.

[4] = tested on: lymphocytic leukemia P-388; experiment: Activity in mice against lymphocytic leukemia P-388; format: in vivo; conditions: Mus musculus, P388, ip; mice, I.P., 10 mg/kg; read-out: T/C
E. coli 9637 = experiment: In vitro antibacterial activity (MIC), E. coli 9637; conditions: Escherichia coli, 9637, 18 h
S. aureus Smith = experiment: In vitro antibacterial activity (MIC), S. aureus Smith; conditions: Staphylococcus aureus, 18 h
S. aureus 53-180 = experiment: In vitro antibacterial activity (MIC), S. aureus 53-180; conditions: Staphylococcus aureus, 53180, 18 h
P. vulgaris 6896 = experiment: In vitro antibacterial activity (MIC), P. vulgaris 6896; conditions: Proteus vulgaris, 6896, 18 h
N. catarrhalis 8193 = experiment: In vitro antibacterial activity (MIC), N. catarrhalis 8193; conditions: 18 h
K. pneumoniae 10031 = experiment: In vitro antibacterial activity (MIC), K. pneumoniae 10031; conditions: Klebsiella pneumoniae, 10031, 18 h

Work on Cc1ccc(C)c(Cn2ccc3c4c(N)nc(N)nc4ccc32)c1 [Example 23, 7-[(2,5-dimethylphenyl)methyl]-7H-pyrrolo[3,2-f]quinazoline-1,3-diamine] yielded an MIC (S. paratyphi 11737) of 125 µg/mL (≈ 394 µM), an MTD [1] of 640 mg/kg and an ED100 ([2]; Plasmodium berghei, sc, 1440 h, single dose, 60-day survivors, read-out: Lowest Dose Curing All Mice) of 40 mg/kg. For the same molecule, the minimal effective dose ([2]; Plasmodium berghei, sc, 1440 h, single dose, 60-day survivors, read-out: Min. Curing Dose) was 10 mg/kg, the “Cure/Treat at Min. Curing Dose” value ([2]; at the Min. Curing Dose, 60-day survivors) was 3/5 and the “ΔMST (increase in mean survival time)” value ([2]; dose 5 mg. per kg.) was 7.9. The ED50 (P. cynomolgi) was 1 mg/kg, the “Activity against resistant strains” value [3] was “Activity” and the response vs control in vivo at 10 mg/kg [4] was 142%. For the same molecule, the MIC (E. coli 9637) was 31.3 µg/mL (≈ 98.6 µM), the MIC (S. aureus Smith) was 3.9 µg/mL (≈ 12.3 µM) and the MIC (S. aureus 53-180) was 0.976 µg/mL (≈ 3.08 µM). It also gave an MIC (P. vulgaris 6896) of 250 µg/mL (≈ 788 µM), an MIC (N. catarrhalis 8193) of 0.244 µg/mL (≈ 0.769 µM) and an MIC (K. pneumoniae 10031) of 1.95 µg/mL (≈ 6.14 µM).
